Experimental data: patent publication US8383581B2, “Short-chain peptides as parathyroid hormone (PTH) receptor agonist” (Cadila Healthcare Limited, priority 2009, dated 2013)
Where a SMILES comes first, the peptide text is derived from it. [ ]: non-standard residue; d: D form. ξ: configuration not given here. Arg(NO2) = N=C(NCCC[C@H](N)C(=O)O)N[N+](=O)[O-]; αMePhe(2,6-F2) = C[C@](N)(Cc1c(F)cccc1F)C(=O)O; ξαMePhe(2,6-F2) = CC(N)(Cc1c(F)cccc1F)C(=O)O; αMePhe(2-F) = C[C@](N)(Cc1ccccc1F)C(=O)O; ξαMe(hhPhe) = CC(N)(CCCc1ccccc1)C(=O)O; ξαMePhe(2-F) = CC(N)(Cc1ccccc1F)C(=O)O; ξαMeW = CC(N)(Cc1c[nH]c2ccccc12)C(=O)O; hArg = N=C(N)NCCCC[C@H](N)C(=O)O; Cit = NC(=O)NCCC[C@H](N)C(=O)O; ξαMeNle = CCCCC(C)(N)C(=O)O; Nle = CCCC[C@H](N)C(=O)O; ξαMeP = CC1(C(=O)O)CCCN1; Ac5c = NC1(C(=O)O)CCCC1; Ac3c = NC1(C(=O)O)CC1; Aib = CC(C)(N)C(=O)O

Legend:
Type in all cases: in vitro ADME
[1] = Stability of peptides in human plasma; conditions: human, plasma; for metabolised at 24 h, 2 μM: pH 7.8
Description: (§1) b) Stability of Peptides in Human Plasma, Simulated Gastric Fluid, Intestinal Fluid and Liver Microsomes (Ex-Vivo): Different short-chain peptides (final concentration 2 μM) were incubated with either pooled human plasma (7.5 μL) or simulated gastric fluid (pH 1.5; composition HCl, NaCl and Pepsin) or simulated intestinal fluid (pH 7.5) or human liver microsomes, for 0, 2, 4, 6, 12 and 24 h (37° C.; 50 mM triethanolamine-HCl buffer; pH 7.8). Concentrations of human plasma/simulated gastric fluid/simulated intestinal fluid/human liver microsomes were selected in preliminary experiments to provide degradation of approximately 50% of PTH(1-34) within 1 h, therefore allowing time-dependent degradation to be viewed over 24 h. Reactions were terminated by the addition of TFA/H2O ([…], 10% (v/v)). The reaction products were then applied to a Vydac C18 analytical column (4.6×250-mm) and the major degradation fragment separated from intact short-chain peptides. The column was equilibrated with TFA/H20, at a flow rate of 1 mL/min. Using 0.1% (v/v) TFA in 70% acetonitrile/H2O, the concentration of acetonitrile in the eluting solvent was raised from 0% to 28% over 10 min and from 28% to 42% over 30 min. The absorbance was monitored at 206 nm using UV detector and peaks were collected manually prior to ESI-MS analysis. Area under the curve was measured for test peptides and their metabolites and percentage degradation were calculated at each time point over a period of 24 h. Stability study results of selected peptides, in human plasma, simulated gastric fluid, intestinal fluid and liver microsomes (in vitro) are listed in Table 4.

[2] = Stability of peptides in simulated gastric fluid (pH 1.5; HCl, NaCl and Pepsin); conditions: pH 1.5; for % degradation of peptides in 24 h when incubated with simulated gastric fluid: 2 μM; for half-life / half-life (t1/2) in simulated gastric fluid: simulated gi fluid
Description: as §1

[3] = Stability of peptides in human liver microsomes; conditions: human, microsomes; for % degradation of peptides in 24 h when incubated with liver microsomes: 2 μM, pH 7.8
Description: as §1

[4] = Stability of peptides in simulated intestinal fluid (pH 7.5); conditions: pH 7.5; for half-life / half-life (t1/2) in simulated intestinal fluid: simulated gi fluid; for % degradation of peptides in 24 h when incubated with simulated intestinal fluid: 2 μM
Description: as §1

SMILES | half-life [1] | metabolised at 24 h, 2 μM [1] | % degradation of peptides in 24 h when incubated with simulated gastric fluid [2] | half-life [2] | half-life (t1/2) in liver microsomes [3] | % degradation of peptides in 24 h when incubated with liver microsomes [3] | half-life [4] | % degradation of peptides in 24 h when incubated with simulated intestinal fluid [4] | half-life (t1/2) in simulated gastric fluid [2] | half-life [3] | half-life (t1/2) in simulated intestinal fluid [4] | half-life (t1/2) in human plasma [1]
CCCC[C@H](NC(=O)C(C)(Cc1ccccc1F)NC(=O)[C@H](CCC(N)=O)NC(=O)[C@@H](NC(=O)[C@H](CCC(=O)O)NC(=O)C1(NC(=O)[C@@H](NC(=O)C(C)(C)N)C(C)C)CCCC1)[C@@H](C)CC)C(=O)N[C@@H](Cc1c[nH]cn1)C(=O)N[C@@H](CCC(N)=O)C(=O)N[C@@H](CCCCNC(=N)N)C(=O)N1CCCC1(C)C(=O)N[C@@H](CCCCN)C(=O)NC(C)(Cc1ccccc1F)C(N)=O (stereo partly shown) [Seq. ID. 62] (H-[Aib]V[Ac5c]EIQ[ξαMePhe(2-F)][Nle]HQ[hArg][ξαMeP]K[ξαMePhe(2-F)]-NH2) | > 24 h | 0% | 00% | > 24 h | (5) h | 33% | > 24 h | 00% | – | – | – | –
CCCC[C@H](NC(=O)[C@](C)(Cc1ccccc1F)NC(=O)[C@H](CCC(N)=O)NC(=O)[C@@H](NC(=O)[C@H](CCC(=O)O)NC(=O)C(C)(C)NC(=O)[C@@H](NC(=O)C(C)(C)N)C(C)C)[C@@H](C)CC)C(=O)N[C@@H](Cc1c[nH]cn1)C(=O)N[C@@H](CCC(N)=O)C(=O)N[C@@H](CCCCNC(=N)N)C(=O)NC(C)(C)C(=O)N[C@@H](CCCNC(N)=O)C(=O)N[C@@](C)(Cc1c(F)cccc1F)C(N)=O [Seq. ID. 142] (H-[Aib]V[Aib]EIQ[αMePhe(2-F)][Nle]HQ[hArg][Aib][Cit][αMePhe(2,6-F2)]-NH2) | 8 h | 80% | 13% | – | – | 82% | – | 50% | (8) h | 1 h | (6) h | –
CCCC[C@H](NC(=O)C(C)(Cc1ccccc1F)NC(=O)[C@H](CCC(N)=O)NC(=O)[C@@H](NC(=O)[C@H](CCC(=O)O)NC(=O)C(C)(C)NC(=O)[C@@H](NC(=O)C1(N)CC1)C(C)C)[C@@H](C)CC)C(=O)N[C@@H](Cc1c[nH]cn1)C(=O)N[C@@H](CCC(N)=O)C(=O)N[C@@H](CCCCNC(=N)N)C(=O)NC(C)(C)C(=O)N[C@@H](CCCCN)C(=O)NC(C)(Cc1c(F)cccc1F)C(N)=O (stereo partly shown) [Seq. ID. 95] (H-[Ac3c]V[Aib]EIQ[ξαMePhe(2-F)][Nle]HQ[hArg][Aib]K[ξαMePhe(2,6-F2)]-NH2) | – | 80% | 100% | 0.5 h | – | 100% | 0.5 h | 100% | – | 0.5 h | – | (9) h
CCCC[C@H](NC(=O)C(C)(Cc1ccccc1F)NC(=O)[C@H](CCC(N)=O)NC(=O)[C@@H](NC(=O)[C@H](CCC(=O)O)NC(=O)C(C)(C)NC(=O)[C@@H](NC(=O)C1(N)CCCC1)C(C)C)[C@@H](C)CC)C(=O)N[C@@H](Cc1c[nH]cn1)C(=O)N[C@@H](CCC(N)=O)C(=O)N[C@@H](CCCCNC(=N)N)C(=O)NC(C)(C)C(=O)N[C@@H](CCCNC(=N)N[N+](=O)[O-])C(=O)NC(C)(Cc1c(F)cccc1F)C(N)=O (stereo partly shown) [Seq. ID. 270] (H-[Ac5c]V[Aib]EIQ[ξαMePhe(2-F)][Nle]HQ[hArg][Aib][Arg(NO2)][ξαMePhe(2,6-F2)]-NH2) | – | 78% | 100% | 0.5 h | – | 100% | 0.5 h | 100% | – | 0.5 h | – | (9) h
CCCC[C@H](NC(=O)C(C)(Cc1c(F)cccc1F)NC(=O)[C@H](CCC(N)=O)NC(=O)[C@@H](NC(=O)[C@H](CCC(=O)O)NC(=O)C(C)(C)NC(=O)[C@@H](NC(=O)C1(N)CCCC1)C(C)C)[C@@H](C)CC)C(=O)N[C@@H](Cc1c[nH]cn1)C(=O)N[C@@H](CCC(N)=O)C(=O)N[C@@H](CCCCNC(=N)N)C(=O)NC(C)(C)C(=O)NC(C)(Cc1c(F)cccc1F)C(=O)NC(C)(Cc1ccccc1F)C(N)=O (stereo partly shown) [Seq. ID. 220] (H-[Ac5c]V[Aib]EIQ[ξαMePhe(2,6-F2)][Nle]HQ[hArg][Aib][ξαMePhe(2,6-F2)][ξαMePhe(2-F)]-NH2) | 8 h | 75% | 12% | – | – | 83% | – | 46% | (8) h | 1 h | (6) h | –

Further lines, results first:

half-life [1] | metabolised at 24 h, 2 μM [1] | % degradation of peptides in 24 h when incubated with simulated gastric fluid [2] | half-life [2] | half-life (t1/2) in liver microsomes [3] | % degradation of peptides in 24 h when incubated with liver microsomes [3] | half-life [4] | % degradation of peptides in 24 h when incubated with simulated intestinal fluid [4] | half-life (t1/2) in simulated gastric fluid [2] | half-life [3] | half-life (t1/2) in simulated intestinal fluid [4] | half-life (t1/2) in human plasma [1] | SMILES
– | 70% | 100% | 0.5 h | – | 100% | 0.5 h | 100% | – | 0.5 h | – | (9) h | CCCCC(C)(NC(=O)[C@H](CC(C)C)NC(=O)[C@H](CCC(N)=O)NC(=O)[C@@H](NC(=O)[C@H](CCC(=O)O)NC(=O)C(C)(C)NC(=O)[C@@H](NC(=O)C(C)(C)N)C(C)C)[C@@H](C)CC)C(=O)N[C@@H](Cc1c[nH]cn1)C(=O)N[C@@H](CCC(N)=O)C(=O)N[C@@H](CCCCNC(=N)N)C(=O)N[C@@H](C)C(=O)N[C@@H](CCCCNC(=N)N)C(=O)NC(C)(Cc1c[nH]c2ccccc12)C(=O)NC(C)(CCCc1ccccc1)C(N)=O (stereo partly shown) [Seq. ID. 949] (H-[Aib]V[Aib]EIQL[ξαMeNle]HQ[hArg]A[hArg][ξαMeW][ξαMe(hhPhe)]-NH2)
> 24 h | 0% | 41% | 4 h | – | 80% | > 24 h | 00% | – | 2 h | – | – | CCCC[C@H](NC(=O)C(C)(Cc1c(F)cccc1F)NC(=O)[C@H](CCC(N)=O)NC(=O)[C@@H](NC(=O)[C@H](CCC(=O)O)NC(=O)C(C)(C)NC(=O)[C@@H](NC(=O)C(C)(C)N)C(C)C)[C@@H](C)CC)C(=O)N[C@@H](Cc1c[nH]cn1)C(=O)N[C@@H](CCC(N)=O)C(=O)NC(C)(Cc1c(F)cccc1F)C(=O)NC(C)(C)C(=O)NC(C)(Cc1c(F)cccc1F)C(=O)NC(C)(Cc1ccccc1F)C(N)=O (stereo partly shown) [Seq. ID. 510] (H-[Aib]V[Aib]EIQ[ξαMePhe(2,6-F2)][Nle]HQ[ξαMePhe(2,6-F2)][Aib][ξαMePhe(2,6-F2)][ξαMePhe(2-F)]-NH2)
8 h | 80% | 13% | – | – | 82% | – | 50% | (8) h | 1 h | (6) h | – | CCCC[C@H](NC(=O)[C@](C)(Cc1c(F)cccc1F)NC(=O)[C@H](CCC(N)=O)NC(=O)[C@@H](NC(=O)[C@H](CCC(=O)O)NC(=O)C(C)(C)NC(=O)[C@@H](NC(=O)C(C)(C)N)C(C)C)[C@@H](C)CC)C(=O)N[C@@H](Cc1c[nH]cn1)C(=O)N[C@@H](CCC(N)=O)C(=O)NC(C)(C)C(=O)NC(C)(C)C(=O)N[C@@H](CCCNC(N)=O)C(=O)N[C@@](C)(Cc1c(F)cccc1F)C(N)=O [Seq. ID. 550] (H-[Aib]V[Aib]EIQ[αMePhe(2,6-F2)][Nle]HQ[Aib][Aib][Cit][αMePhe(2,6-F2)]-NH2)
